For 27 compounds, EC50 and %max results are on record in ChEMBL document CHEMBL1136933 (J Med Chem, 2009).

In general, EC50 refers to the concentration needed to bring the measured effect to its halfway point.

Common to all, as to type: functional, cell-based
Experiment [1] concerns the target T1, Muscarinic acetylcholine receptor M5 (Homo sapiens, UniProt P08912).
T1 sequence (P08912 whole entry): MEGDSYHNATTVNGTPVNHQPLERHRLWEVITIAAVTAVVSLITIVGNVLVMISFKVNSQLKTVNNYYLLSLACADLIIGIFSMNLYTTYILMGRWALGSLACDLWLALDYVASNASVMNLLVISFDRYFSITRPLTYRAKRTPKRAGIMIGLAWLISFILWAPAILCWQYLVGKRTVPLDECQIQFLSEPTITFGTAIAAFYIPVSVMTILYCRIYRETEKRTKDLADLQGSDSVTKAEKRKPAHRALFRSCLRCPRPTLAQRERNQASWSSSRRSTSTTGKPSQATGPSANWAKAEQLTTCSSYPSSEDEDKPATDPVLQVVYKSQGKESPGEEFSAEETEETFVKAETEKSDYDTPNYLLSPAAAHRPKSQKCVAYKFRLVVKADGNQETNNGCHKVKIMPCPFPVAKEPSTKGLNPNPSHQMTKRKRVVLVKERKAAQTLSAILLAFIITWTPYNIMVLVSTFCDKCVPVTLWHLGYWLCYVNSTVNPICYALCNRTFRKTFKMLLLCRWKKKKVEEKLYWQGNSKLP
Nature of the experiment: Activation of human muscarinic M5 receptor expressed in CHO cells coexpressing Gq protein assessed as potentiation of acetylcholine-induced intracellular Ca2+ mobilization.

The target of experiment [2] is T2, Muscarinic acetylcholine receptor M1 (Rattus norvegicus, UniProt P08482).
T2 sequence (P08482 whole entry): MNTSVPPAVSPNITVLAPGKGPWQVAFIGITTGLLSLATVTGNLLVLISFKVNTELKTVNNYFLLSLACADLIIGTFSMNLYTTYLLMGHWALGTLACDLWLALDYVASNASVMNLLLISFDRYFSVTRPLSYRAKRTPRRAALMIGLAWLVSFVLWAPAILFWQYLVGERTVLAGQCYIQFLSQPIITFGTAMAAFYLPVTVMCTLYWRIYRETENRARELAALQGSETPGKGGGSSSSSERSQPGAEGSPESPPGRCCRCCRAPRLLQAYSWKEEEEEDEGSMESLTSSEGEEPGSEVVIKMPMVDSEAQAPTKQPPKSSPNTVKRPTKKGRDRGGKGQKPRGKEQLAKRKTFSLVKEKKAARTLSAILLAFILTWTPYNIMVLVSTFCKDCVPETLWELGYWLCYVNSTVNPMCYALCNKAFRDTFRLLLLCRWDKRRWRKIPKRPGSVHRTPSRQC
Nature of the experiment: Activation of rat muscarinic M1 receptor expressed in CHO cells co-expressing Gq protein assessed as potentiation of acetylcholine-induced intracellular Ca2+ mobilization. In general terms: Calcium assays in cells follow changes in intracellular calcium, usually with a dye or a luminescent sensor.

Experiment [3] deals with T3, Muscarinic acetylcholine receptor M5 (Homo sapiens) (UniProt P08912).
T3 sequence (whole entry): T1 sequence (P08912 whole entry)
Briefly: Activation of human muscarinic M5 receptor expressed in CHO cells coexpressing Gq protein assessed as potentiation of acetylcholine-induced intracellular Ca2+ mobilization at 30 uM relative to acetylcholine.

Experiment [4] deals with T4, Muscarinic acetylcholine receptor M1 (Rattus norvegicus) (UniProt P08482).
T4 sequence (whole entry): T2 sequence (P08482 whole entry)
Briefly: Activation of rat muscarinic M1 receptor expressed in CHO cells co-expressing Gq protein assessed as potentiation of acetylcholine-induced intracellular Ca2+ mobilization at 30 uM relative to acetylcholine.

`O=C1C(=O)N(Cc2ccc(Br)cc2F)c2c(Cl)cccc21`: in experiment [1], the EC50 stood at 4.66 µM.

As for `O=C1C(=O)N(Cc2ccccc2C(F)(F)F)c2c(F)cccc21`, the EC50 in experiment [2] and in experiment [1] was more than 30 µM each time. Further, the %max in experiment [3] stood at 30.9%; in experiment [4], 41.3%.

Regarding `COc1cccc(CN2C(=O)C(=O)c3cc(OC(F)(F)F)ccc32)c1`, the values for the EC50 in experiment [2] and in experiment [1] were more than 30 µM and 1.7 µM, respectively. Further, the results for the %max in experiment [3] and in experiment [4] were 70.1% and 28.6%, respectively.

In the case of `COc1ccc(CN2C(=O)C(=O)c3cccc(Cl)c32)cc1`, the figures for the EC50 in experiment [2] and in experiment [1] were 5.38 µM and 3.96 µM, respectively. In addition, the %max in experiment [3] is 30.3%; in experiment [4], 49.4%.

In the case of `O=C1C(=O)N(Cc2ccc(C(F)(F)F)cc2)c2ccc(OC(F)(F)F)cc21`, the EC50 in experiment [2] came out at 7.09 µM; in experiment [1], 1.85 µM. Moreover, the figures for the %max in experiment [3] and in experiment [4] were 67.2% and 25.7%, respectively.

Turning to `O=C1C(=O)N(Cc2ccccc2C(F)(F)F)c2ccc(F)cc21`, the EC50 is 6.21 µM in experiment [2] and 4.09 µM in experiment [1]. In addition, the %max turned out to be 36.1% in experiment [3] and 47.8% in experiment [4].

As for `COc1ccc(CN2C(=O)C(=O)c3ccccc32)cc1`, the EC50 in experiment [2] is more than 10 µM; in experiment [1], more than 30 µM. The %max turned out to be 29.2% in experiment [3] and 43.6% in experiment [4].

For the compound `O=C1C(=O)N(Cc2ccc(C(F)(F)F)cc2)c2ccccc21`, the EC50 in experiment [1] was determined as 3.19 µM.

For `O=C1C(=O)N(Cc2ccc(F)cc2F)c2c(Cl)cccc21`, the %max in experiment [3] stood at 61.6%; in experiment [4], 64.6%.

Take `COc1cccc(CN2C(=O)C(=O)c3cc(C)ccc32)c1`: the %max in experiment [3] is 29.6%; in experiment [4], 14.5%.

Turning to `O=C1C(=O)N(Cc2ccc(F)cc2F)c2c(Cl)ccc(Cl)c21`, the %max in experiment [3] came to 19.1%; in experiment [4], 17.2%.

For the compound `O=C1C(=O)N(Cc2ccccc2F)c2ccccc21`, the figures for the %max in experiment [3] and in experiment [4] were 24.5% and 38.9%, respectively.

With `O=C1C(=O)N(Cc2ccccc2C(F)(F)F)c2ccccc21`, the figures for the %max in experiment [3] and in experiment [4] were 40.2% and 37.9%, respectively.

For `O=C1C(=O)N(Cc2ccccc2F)c2ccc(OC(F)(F)F)cc21`, the %max in experiment [3] stood at 51.8%; in experiment [4] it was 11.3%.

Regarding `COc1cccc(CN2C(=O)C(=O)c3cccc(Cl)c32)c1`, the %max in experiment [3] is 38.7%; in experiment [4] it was 46.9%.

As to `O=C1C(=O)N(Cc2ccccc2F)c2ccc(F)cc21`, the figures for the %max in experiment [3] and in experiment [4] were 46.2% and 40.1%, respectively.

On to `O=C1C(=O)N(Cc2ccccc2Cl)c2ccccc21`, for which the %max in experiment [3] stood at 42%; in experiment [4] it was 43.4%.

With `O=C1C(=O)N(Cc2ccc(OC(F)(F)F)cc2)c2ccc(F)cc21`, the results for the %max in experiment [3] and in experiment [4] were 58.4% and 59.8%, respectively.

As to `Cc1ccccc1CN1C(=O)C(=O)c2cc(Cl)ccc21`, the %max was 47.3% in experiment [3] and 27.6% in experiment [4].

As to `O=C1C(=O)N(Cc2ccccc2F)c2c(Cl)ccc(Cl)c21`, the %max amounted to 14.7% in experiment [3] and 12.4% in experiment [4].

For `O=C1C(=O)N(Cc2ccc(Br)cc2)c2ccc(Cl)cc21`, the %max in experiment [3] is 32%; in experiment [4] it was 26.1%.

Consider `O=C1C(=O)N(Cc2c(F)cccc2F)c2c(Cl)ccc(Cl)c21`, for which the %max in experiment [3] was 12.2%; in experiment [4] it was 16.4%.

On to `COc1cccc(CN2C(=O)C(=O)c3cc(F)ccc32)c1`, for which the %max was 41.6% in experiment [3] and 32.3% in experiment [4].

With `Cc1ccc2c(c1)C(=O)C(=O)N2Cc1ccccc1C(F)(F)F`, the results for the %max in experiment [3] and in experiment [4] were 30.6% and 17.8%, respectively.

On to `COc1cccc(CN2C(=O)C(=O)c3cccc(F)c32)c1`, for which the %max in experiment [3] turned out to be 52%; in experiment [4], 51.1%.

For `COc1ccc(CN2C(=O)C(=O)c3cccc(F)c32)cc1`, the %max was determined as 44.4% in experiment [3] and 54.6% in experiment [4].

As to `Cc1ccccc1CN1C(=O)C(=O)c2c(Cl)ccc(Cl)c21`, the %max was found to be 16.4% in experiment [3] and 13.7% in experiment [4].
